# Experimental data from patent US8501800B2, “Controlled-release ophthalmic vehicles” (Insite Vision Incorporated, priority 2009, dated 2013).
# Assay: Release of fluorometholone in the rabbit eye, measured in aqueous humor
# Assay type: in vivo
# Conditions: measured by fluorometholone contained in the aqueous humor
# Method: The viscous gels that result upon administration of the aqueous suspensions of this invention to the eye have residence times in the eye ranging from about 2 to about 12 hours, e.g., from about 3 to about 6 hours. The active ingredients contained in these ophthalmically acceptable vehicles are released from the gels at rates that depend on such factors as the active ingredient itself and its physical form, the extent of drug loading and the pH of the system, as well as on any drug delivery adjuvants, such as ion exchange resins compatible with the ocular surface, which can also be present.
structure (smiles),measurement,value
CC(=O)[C@@]1(O)CC[C@H]2[C@@H]3C[C@H](C)C4=CC(=O)C=C[C@]4(C)[C@@]3(F)[C@@H](O)C[C@@]21C [fluorometholone],Release rates in the rabbit eye,in excess of four hours
